Experimental data taken from paper PMC10451629, “Evaluation of the Effects of Heteroaryl Ethylene Molecules in Combination with Antibiotics: A Preliminary Study on Control Strains” (Antibiotics, 2023).
“And” between values parts separate entries of the source, which are not always exact repeats. Identical values can stand only once. Like-named read-outs stand apart in the source and are kept apart here.

Legend:
[1] = system: CaCo-2 (ATCC HTB-37) colon–rectal cancer cell line; assay: MTT cytotoxicity assay on CaCo-2 cells; type: cell-based, human; conditions: Homo sapiens, CaCo-2 cell line, MTT
Method: To fully assess the biological activity of the new molecules, they were tested at different concentrations on the CaCo-2 (ATCC HTB-37) colon–rectal cancer cell line. These human cancer cells were exposed to compound solutions ranging in concentration from 100 µM to 0.01 µM. As a reference compound for these assays, we used 5-Fluorouracil (5-FU), a pyrimidine analog from the antimetabolite family.
The MTT assay was also performed for the selected antibiotics to evaluate the effect of their combined treatment with PB4.
To evaluate the effect of the heteroaryl ethylene compounds and the antibiotics, an MTT ([3-(4,5-dimethylthiazol-2-yl)-2,5-diphenyltetrazolium bromide]) assay was performed as previously described. […] Both concentrations were also tested in combination with PB4 0.2 µM. All antibiotics were provided by Thermo Scientific^TM Oxoid^TM, Basingstoke, UK. Twenty-four hours after plating, the cells were treated with 20 μL of each solution. Untreated cells were used as controls. […] The IC50 values were calculated by nonlinear regression analysis using GraphPad Prism 6.0 software.

[2] = system: CaCo2 colon-rectal cancer cell line; design: method as in in-house dataset; Log(IC50) 48h: unit not given here; conditions: in-house dataset previously tested by the authors' groups, ref in-house dataset, cited from earlier work; for IC50: 48h
S. aureus ATCC29213 = conditions: QSAR dataset, in-house database, previously tested, ref Unpublished results; cited from earlier work
E. faecalis ATCC 29212 = assay: Broth microdilution MIC; type: cell-based, Enterococcus faecalis; conditions: Enterococcus faecalis, ATCC29212, E. faecalis ATCC 29212; substance alone; read-out: MIC
S. aureus ATCC 29213 = assay: Broth microdilution MIC; type: cell-based; conditions: Staphylococcus aureus, ATCC29213, S. aureus ATCC 29213; substance alone; read-out: MIC
S. aureus ATCC 12598 = assay: Broth microdilution MIC; type: cell-based, Staphylococcus aureus; conditions: Staphylococcus aureus, ATCC12598, S. aureus ATCC 12598; substance alone; read-out: MIC
[3] = system: S. aureus ATCC BAA-1556 USA300; assay: Broth microdilution MIC; type: cell-based, Staphylococcus aureus; conditions: Staphylococcus aureus, S. aureus ATCC BAA-1556 USA300; substance alone
[4] = system: K. pneumoniae ATCC 700603; assay: Broth microdilution MIC; type: cell-based, Klebsiella pneumoniae; conditions: Klebsiella pneumoniae, ATCC700603, K. pneumoniae ATCC 700603; substance alone; read-out: MIC
A. baumannii ATCC 17978 = assay: Broth microdilution MIC; type: cell-based; conditions: Acinetobacter baumannii, ATCC17978, substance alone
P. aeruginosa ATCC 27853 = assay: Broth microdilution MIC; type: cell-based, Pseudomonas aeruginosa; conditions: Pseudomonas aeruginosa, ATCC27853, P. aeruginosa ATCC 27853; substance alone; read-out: MIC
S. enterica ATCC 14028 = assay: Broth microdilution MIC; type: cell-based; conditions: Salmonella enterica, ATCC14028, substance alone
E. coli ATCC 25922 = assay: Broth microdilution MIC; type: cell-based; conditions: Escherichia coli, ATCC25922, substance alone, read-out: MIC
[5] = Caco-2, 24 h, 24 h of treatment, read-out: IC50 at 24 h
[6] = Caco-2, 48 h, 48 h of treatment, read-out: IC50 at 48 h

| SMILES | IC50 [2] | Log(IC50) 48h [2] | other results |
| --- | --- | --- | --- |
| O=c1[nH]cc(F)c(=O)[nH]1 [5-FU, 5-Fluorouracil] |  |  | IC50 [1, 5]: ~27 µM; IC50 [1, 6]: 12.9 µM |
| C[n+]1c(/C=C/c2ccc(-c3ccc(N4CCCCC4)s3)s2)ccc2ccccc21 [BC1] | 20 µM | 1.30 |  |
| CCCCN(CCCC)c1ccc(-c2ccc(/C=C/c3ccc(C(=O)O)c[n+]3C)s2)s1 [BCG3] | 8 µM | 0.90 |  |
| CC[n+]1ccc2c(c1)CCC/C2=C\c1ccc(N(C)C)cc1 [BCM3] | 1.35 µM | 0.13 | MIC (S. aureus ATCC29213): 64 µg/mL |
| CN(C)c1ccc(/C=C/c2cccc[n+]2C)cc1 [BCM4] |  |  | MIC (E. faecalis ATCC 29212): ≥ 128 µg/mL and ≥ 350 µM; MIC (S. aureus ATCC 29213): 128 µg/mL and 350 µM; MIC (S. aureus ATCC 12598): 64 µg/mL and 175 µM; MIC [3]: 64 µg/mL and 175 µM; MIC [4]: > 128 µg/mL and ≥ 350 µM; MIC (A. baumannii ATCC 17978): ≥ 128 µg/mL and ≥ 350 µM; MIC (P. aeruginosa ATCC 27853): > 128 µg/mL and ≥ 350 µM; MIC (S. enterica ATCC 14028): > 128 µg/mL and ≥ 350 µM; MIC (E. coli ATCC 25922): ≥ 128 µg/mL and ≥ 350 µM; IC50 [1, 5]: 0.72 µM; IC50 [1, 6]: 0.1 µM |
| C[n+]1c(/C=C/c2cc(Cl)ccc2O)cccc1/C=C/c1cc(Cl)ccc1O [BCM12] |  |  | MIC (S. aureus ATCC29213): > 128 µg/mL |
| CC[n+]1ccc2c(c1)CCC/C2=C\c1ccccc1O [BCNAc1] |  |  | MIC (S. aureus ATCC29213): > 128 µg/mL |
| C[n+]1ccccc1/C=C/c1ccc2ccc3c4c2c1C=CC4C=CC3 (stereo not drawn) [GC VI 3] | 0.9 µM | -0.0458 |  |
| C[n+]1c(/C=C/c2ccc(N(c3ccccc3)c3ccccc3)cc2)ccc2ccccc21 [GC VI 14] | 4 µM | 0.602 |  |
| CN(C)c1ccc(/C=C/c2cc[n+](C)cc2)cc1 [GC VI 17] | 8 µM | 0.903 |  |
| CN(C)c1ccc(/C=C/C=C/c2cc[n+](C)cc2)cc1 [GC VI 45] | 16 µM | 1.20 |  |
| C[n+]1c(/C=C/c2ccnc(-c3cc(/C=C/c4ccc5ccccc5[n+]4C)ccn3)c2)ccc2ccccc21 [GC VI 71] | 51.2 µM | 1.71 |  |
| CCOC(=O)C(C#N)c1ccc(/C=C/c2cc[n+](C)cc2)n1C (stereo not drawn) [GC VII 16] | 70 µM | 1.85 |  |
| C[n+]1ccccc1/C=C/c1ccc2ccccc2c1 [GC VII 46] | 5.5 µM | 0.740 |  |
